Results taken from article PMC3971528, “Leishmania infantum EndoG Is an Endo/Exo-Nuclease Essential for Parasite Survival” (PLoS ONE, 2014).

Target: T1, LiEndoG (rLiEndoG) (Leishmania infantum, UniProt B0ZTD3)
T1 construct: gene endog; recombinant from pRSET-LiendoG in E. coli BL21(DE3) pLys
T1 sequence (B0ZTD3 1-510): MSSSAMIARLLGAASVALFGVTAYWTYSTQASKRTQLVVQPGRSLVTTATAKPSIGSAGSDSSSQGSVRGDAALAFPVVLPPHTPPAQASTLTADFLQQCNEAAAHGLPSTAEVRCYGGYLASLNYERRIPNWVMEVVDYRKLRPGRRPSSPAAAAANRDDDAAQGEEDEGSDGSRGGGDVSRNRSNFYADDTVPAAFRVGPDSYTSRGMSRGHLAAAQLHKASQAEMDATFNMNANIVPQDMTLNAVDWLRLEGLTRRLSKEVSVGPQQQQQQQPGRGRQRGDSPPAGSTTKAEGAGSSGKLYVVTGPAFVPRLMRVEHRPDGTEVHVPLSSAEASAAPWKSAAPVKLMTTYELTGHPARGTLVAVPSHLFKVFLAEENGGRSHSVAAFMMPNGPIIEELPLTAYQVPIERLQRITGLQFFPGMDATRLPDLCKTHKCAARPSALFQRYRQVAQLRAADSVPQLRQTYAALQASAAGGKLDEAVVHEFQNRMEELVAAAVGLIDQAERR
Assay: fluorescence nuclease assay, FAM/TAMRA double-stranded oligonucleotide probe
Assay type: biochemical
Details: inhibitor; 30 pmol probe, 2.5 ng/mL LiEndoG, 40 min; increasing Lei49

## Cc1cn([C@H]2C[C@H](OC(=O)CCC(=O)OCCOC(=O)[C@@H](N)C(C)C)[C@@H](COC(c3ccccc3)(c3ccccc3)c3ccccc3)O2)c(=O)[nH]c1=O [Lei49, 2-[(S)-2-Amino-3-methylbutanoyl-oxy]ethyl [(2R,3S,5R)-5-(thymin-1-yl)-2-(trityloximethyl)tetrahydrofuran-3-yl] succinate]
  fluorescence nuclease assay, FAM/TAMRA double-stranded oligonucleotide probe: Inhibition of the nuclease activity of LiEndoG by Lei49.
